Where “and” joins values, the source holds several entries; their conditions need not be identical. Equal values may be shown once.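 Dose response: 5 concentrations. Exposure: 48 h. Format: 96-well plates. Endpoint: linear interpolation; highest concentration if not reached. GI50: concentration for 50% inhibition of growth. TGI marks complete inhibition of growth.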

Test systems include OVCAR-3 ovarian; SF-539 CNS; SN12C renal; HL-60(TB) leukemia; RXF 393 renal; NCI-H522 lung; LOX IMVI melanoma; SW-620 colon; 786-0 renal; UACC-62 melanoma.
Common to all, as to test: growth of human tumour cells (NCI), 48 h

For `O=C1C(=O)c2c(nc3ccc(C(F)(F)F)cn23)-c2ccccc21`, the GI50 was 0.179 µM in the assay with OVCAR-3 ovarian; 0.169 µM in the assay on SF-539 CNS; 0.186 µM with SN12C renal; 0.201 µM in the assay on HL-60(TB) leukemia; 0.254 µM with RXF 393 renal; 0.206 µM in the assay with NCI-H522 lung. Also, the GI50 in the assay with LOX IMVI melanoma is 0.173 µM; in the assay with SW-620 colon, 0.192 µM; in the assay with 786-0 renal it was 0.396 µM; with UACC-62 melanoma, 0.179 µM. Besides, the TGI in the assay with OVCAR-3 ovarian stood at 0.443 µM; in the assay with SF-539 CNS it was 0.313 µM; in the assay on SN12C renal, 0.354 µM; in the assay on HL-60(TB) leukemia, 0.6 µM; in the assay with RXF 393 renal it was 0.616 µM; in the assay on NCI-H522 lung, 0.549 µM. For the same molecule, the TGI in the assay with LOX IMVI melanoma is 0.354 µM; in the assay on SW-620 colon, 0.397 µM; with 786-0 renal, 0.835 µM; in the assay on UACC-62 melanoma it was 0.343 µM.
On to `Cc1c(C)c([N+](=O)[O-])c2c(c1N)C(=O)c1ccccc1C2=O`, for which the TGI in the assay with OVCAR-3 ovarian, in the assay with SF-539 CNS, in the assay with SN12C renal, in the assay with HL-60(TB) leukemia, with RXF 393 renal and with NCI-H522 lung was above 100 µM throughout. The TGI with LOX IMVI melanoma, in the assay with SW-620 colon, in the assay on 786-0 renal and in the assay with UACC-62 melanoma was above 100 µM throughout.
Consider `Cc1cccc(C2NC(=O)c3ccccc3N2)c1` (centres undefined), for which the TGI with OVCAR-3 ovarian is above 100 µM; with SF-539 CNS it was 9.07 µM; in the assay on SN12C renal, above 100 µM; in the assay with HL-60(TB) leukemia it was above 27.2 µM; in the assay on RXF 393 renal, above 23.7 µM; in the assay with NCI-H522 lung, 46.1 µM. The TGI in the assay on LOX IMVI melanoma, with SW-620 colon, with 786-0 renal and in the assay with UACC-62 melanoma was above 100 µM throughout.
Consider `COc1ccc2c(c1)C(=O)c1c-2c(OCCCN(C)C)nc2cc(Br)ccc12`, for which the GI50 was 3.45 µM with OVCAR-3 ovarian; 1.69 µM with SF-539 CNS; 2.01 µM with SN12C renal; 29.4 µM in the assay with HL-60(TB) leukemia; 1.7 µM with RXF 393 renal; 7.05 µM with NCI-H522 lung. The GI50 was 11.3 µM in the assay on LOX IMVI melanoma, 5.2 µM in the assay with SW-620 colon, 1.59 µM in the assay on 786-0 renal and 12.5 µM in the assay on UACC-62 melanoma. The TGI in the assay with OVCAR-3 ovarian was 13.4 µM; with SF-539 CNS it was 3.16 µM; in the assay on SN12C renal, 4.51 µM; in the assay on HL-60(TB) leukemia it was above 100 µM; in the assay with RXF 393 renal, 3.4 µM; in the assay with NCI-H522 lung, 21.9 µM. The TGI is 23.7 µM in the assay on LOX IMVI melanoma, 20 µM in the assay on SW-620 colon, 2.99 µM in the assay with 786-0 renal and 26.4 µM with UACC-62 melanoma.
In the case of `CCCCNC(c1ccc(Cl)cc1)C(O)c1ccc(Cl)cc1` (centres undefined), the GI50 with OVCAR-3 ovarian was 1.98 µM; in the assay on SF-539 CNS, 1.83 µM; in the assay on SN12C renal, 2.16 µM; in the assay on HL-60(TB) leukemia it was 1.02 µM; in the assay on RXF 393 renal, 1.49 µM; with NCI-H522 lung, 1.56 µM. For the same molecule, the GI50 in the assay with LOX IMVI melanoma is 1.39 µM; in the assay on SW-620 colon, 1.78 µM; in the assay on 786-0 renal it was 1.59 µM; in the assay with UACC-62 melanoma, 1.49 µM. Moreover, the TGI with OVCAR-3 ovarian was determined as 4.83 µM; in the assay with SF-539 CNS it was 3.57 µM; in the assay on SN12C renal it was 10.6 µM; with HL-60(TB) leukemia it was 2.93 µM; with RXF 393 renal, 3.65 µM; in the assay on NCI-H522 lung, 3.51 µM. Further, the TGI with LOX IMVI melanoma came to 2.7 µM; with SW-620 colon it was 3.93 µM; in the assay on 786-0 renal, 3.95 µM; with UACC-62 melanoma, 3.18 µM.
Take `O=C1NC(O)n2c(=O)[nH]c(=O)n21` (centres undefined): the TGI in the assay with OVCAR-3 ovarian, in the assay on SF-539 CNS, in the assay with SN12C renal, in the assay on HL-60(TB) leukemia, with RXF 393 renal and in the assay on NCI-H522 lung was above 100 µM throughout. For the same molecule, the TGI in the assay on LOX IMVI melanoma, in the assay on SW-620 colon, in the assay with 786-0 renal and with UACC-62 melanoma was above 100 µM throughout.
`Cc1cccc(N2C(=O)/C(=C/C(Cl)=C/c3ccc([N+](=O)[O-])cc3)SC2=S)c1C`: the GI50 with OVCAR-3 ovarian is 1.83 µM; in the assay on SF-539 CNS, 2.37 µM; in the assay on SN12C renal, 2.03 µM; in the assay on HL-60(TB) leukemia, 1.91 µM; in the assay on RXF 393 renal it was 1.63 µM; in the assay on NCI-H522 lung it was 2.18 µM. The GI50 in the assay with LOX IMVI melanoma was 1.42 µM; with SW-620 colon, 1.95 µM; in the assay on 786-0 renal, 2.07 µM; in the assay with UACC-62 melanoma it was 1.7 µM. The TGI in the assay on OVCAR-3 ovarian was found to be 3.87 µM; in the assay on SF-539 CNS, 6.76 µM; in the assay on SN12C renal it was 5.05 µM; in the assay with HL-60(TB) leukemia, 6.94 µM; in the assay on RXF 393 renal, 3.52 µM; with NCI-H522 lung, 5.58 µM. The TGI in the assay with LOX IMVI melanoma was 3.25 µM; in the assay with SW-620 colon it was 4.77 µM; in the assay on 786-0 renal, 4.68 µM; with UACC-62 melanoma it was 3.86 µM.
With `C[C@@H]1C[C@@H]([C@H](O)CC2CC(=O)NC(=O)C2)C(=O)[C@@H](C)C1`, the GI50 in the assay on OVCAR-3 ovarian was 0.675 µM; in the assay with SF-539 CNS, 0.214 µM; with SN12C renal it was 0.106 µM; in the assay with HL-60(TB) leukemia, 0.202 µM; in the assay on RXF 393 renal, 0.135 µM; with NCI-H522 lung, 0.126 µM. In addition, the GI50 is 0.258 µM in the assay on LOX IMVI melanoma, 0.219 µM in the assay on SW-620 colon, 0.186 µM with 786-0 renal and 0.321 µM in the assay on UACC-62 melanoma. For the same molecule, the TGI is 2.7 µM and 0.838 µM in the assay with SF-539 CNS; 7.38 µM and 0.793 µM in the assay on SN12C renal; 2.14 µM and 0.43 µM in the assay on HL-60(TB) leukemia; 1.48 µM and 0.462 µM in the assay with RXF 393 renal; 0.643 µM and 0.549 µM in the assay on NCI-H522 lung; 3.53 µM and 0.816 µM with LOX IMVI melanoma. In addition, the TGI is 1.23 µM with SW-620 colon; 3.31 µM and 3.56 µM in the assay on 786-0 renal; 8.14 µM and 10.5 µM in the assay on UACC-62 melanoma.
On to `OCc1ccc(N(Cc2ccc(F)cc2)Cc2ccc(F)cc2)cc1Cl`, for which the GI50 is 10.3 µM with OVCAR-3 ovarian; 15.7 µM in the assay on SF-539 CNS; 11.5 µM in the assay with SN12C renal; 14.5 µM in the assay with HL-60(TB) leukemia; 12.7 µM in the assay with RXF 393 renal; 9.39 µM in the assay with NCI-H522 lung. For the same molecule, the GI50 with LOX IMVI melanoma is 9.51 µM; in the assay with SW-620 colon, 6.21 µM; with 786-0 renal it was 11.6 µM; with UACC-62 melanoma it was 2.61 µM. In addition, the TGI in the assay on OVCAR-3 ovarian was determined as 22.7 µM; with SF-539 CNS, 30 µM; with SN12C renal, 26 µM; in the assay with HL-60(TB) leukemia, 35.4 µM; with RXF 393 renal, 26.3 µM; in the assay on NCI-H522 lung, 25.9 µM. Also, the TGI is 23.3 µM with LOX IMVI melanoma, 20.7 µM in the assay on SW-620 colon, 25.5 µM with 786-0 renal and 13.7 µM with UACC-62 melanoma.

Source of the values: PubChem BioAssay (NCI).
